Test results from patent US5476840A, “New hexapeptidic derivatives, preparation process and use as medicaments of these new derivatives” (Roussel Uclaf, priority 1992, dated 1995).
Ends that are not written are not given here.

How the values were obtained:
[1] = test system: demedullated rat; experiment: Vasoconstrictive activity in a demedullated rat (increase in mean arterial pressure); format: in vivo; conditions: dose 10 mg/kg, venous route, demedullated male Sprague-Dawley rat
Description: Male Sprague-Dawley rats are anaesthetized with Nembutal (60 mg/kg) injected by intraperitoneal route. The animals are then demedullated, put under assisted respiration (1 ml/100 g--50 insufflations per minute), then the vagus nerves are sectioned. A carotid artery is catheterized to record the arterial pressure and the products to be studied are injected into the pudendal vein.
The animals receive endothelin 1 or the compound to be tested as cumulative injections by venous route, the administrations being spaced 2 minutes apart.
The increase in mean arterial pressure (MAP) induced by each compound is measured and expressed as a percentage variation relative to the initial pressure.

[2] = test system: pressure response to endothelin; experiment: Antagonism of the effects of endothelin in a demedullated rat (inhibition of the pressure response to endothelin 1); format: in vivo
Description: Male Sprague-Dawley rats are anaesthetized with Nembutal (60 mg/kg) injected by intraperitoneal route. The animals are then demedullated, put under assisted respiration (1 ml/100 g--50 insufflations per minute), then the vagus nerves are sectioned. A carotid artery is catheterized to record the arterial pressure and the products to be studied are injected into the pudendal vein. Ten minutes after the intravenous injection of the solvent or compounds to be tested, the animals receive administrations of endothelin 1 in a cumulative manner (1, 3, 10 and 30 μg/kg i.v.) every 2 minutes. The antagonistic activity is expressed as a percentage of the inhibition of the pressure response to endothelin administered alone, at doses of 3 and 10 μg/kg.

HAAIIW [Example 1]
% increase of MAP [1]: +8% | Percent change in pressure response to endothelin (negative = reduction) ([2]; dose 5 μg/kg i.v., 3 μg endothelin): -27 | Percent change in pressure response to endothelin (negative = reduction) ([2]; dose 5 μg/kg i.v., 10 μg endothelin): -19 | Percent change in pressure response to endothelin (negative = reduction) ([2]; dose 10 μg/kg i.v., 3 μg endothelin): -60 | Percent change in pressure response to endothelin (negative = reduction) ([2]; dose 10 μg/kg i.v., 10 μg endothelin): -33
